# Reference: patent US4163801A, “Treatment of animals with 2,6-bis(2-hydroxybenzyl)phenols to eradicate trematodes” (ICI Australia Limited, priority 1976, dated 1979)
# What was measured:
# [1] = test system: sheep liver fluke (Fasciola hepatica); experiment: Flukicidal activity in sheep infected with sheep liver fluke: faecal egg count and post mortem adult fluke count after single dose (Table II); assay type: in vivo; conditions: for Post Mortem Results: No of adult fluke: sheep liver; for Faecal Egg Count: sheep
# Protocol: Compositions suitable for use as experimental aqueous oral drenches were prepared in the following general manner. A mixture of the required amount of active ingredient was mixed with 40 ml of an aqueous 0.25% w/w solution of "Lubrol E" ("Lubrol E" is a Registered Trade Mark for an octylphenol ethoxylate). The mixture was ball-milled for 30 minutes and the resultant suspension was used as an aqueous drench.
# Compositions suitable for use as experimental injectable solutions were prepared by dissolving the chemical in propylene glycol and adjusting the concentration to 10% w/v active ingredient.
# Compositions prepared by the methods of Examples 21 and 22 were used as a single dose to test sheep infected with sheep liver fluke (Fasciola hepatica). The number of liver fluke eggs in the faeces was measured at the time of treatment and at selected intervals up to 14 days after treatment. The sheep were killed on day 14 and the number of adult fluke in the liver counted. The amount and structure of active ingredient in each composition and the results of treatment of a sheep with that composition are given in the Table II below. The compositions were administered either by oral drench (oral) or by sub-cutaneous injection (s/c).
# [2] = test system: immature fluke; experiment: Effectiveness against immature fluke (Table II footnotes); assay type: in vivo, Fasciola hepatica; conditions: oral route
compound,measurement,setting,value
"Oc1c(Br)cc(F)cc1Cc1cc(Cl)cc(Cc2cc(F)cc(Br)c2O)c1O [Compound 2, 2,6-bis(3-bromo-5-fluoro-2-hydroxybenzyl)-4-chlorophenol]",Post Mortem Results: No of adult fluke,"[1]; 3.1 mg/kg oral, killed day 14",0
same,Post Mortem Results: No of adult fluke,"[1]; 6.5 mg/kg oral, killed day 14",0
same,Post Mortem Results: No of adult fluke,"[1]; 12.5 mg/kg oral, killed day 14",0
same,Post Mortem Results: No of adult fluke,"[1]; 12.5 mg/kg s/c, killed day 14",0
same,Faecal Egg Count,"[1]; 3.1 mg/kg oral, day 7",20 Eggs per g faeces
same,Faecal Egg Count,"[1]; 3.1 mg/kg oral, day 14",0 Eggs per g faeces
same,Faecal Egg Count,"[1]; 6.5 mg/kg oral, day 7",40 Eggs per g faeces
same,Faecal Egg Count,"[1]; 6.5 mg/kg oral, day 14",0 Eggs per g faeces
same,Faecal Egg Count,"[1]; 12.5 mg/kg oral, day 2",130 Eggs per g faeces
same,Faecal Egg Count,"[1]; 12.5 mg/kg oral, day 7",0 Eggs per g faeces
same,Faecal Egg Count,"[1]; 12.5 mg/kg oral, day 13",0 Eggs per g faeces
same,Faecal Egg Count,"[1]; 12.5 mg/kg s/c, day 3",3800 Eggs per g faeces
same,Faecal Egg Count,"[1]; 12.5 mg/kg s/c, day 7",0 Eggs per g faeces
same,Faecal Egg Count,"[1]; 12.5 mg/kg s/c, day 14",0 Eggs per g faeces
"Oc1c(Br)cc(Cl)cc1Cc1cc(F)cc(Cc2cc(Cl)cc(Br)c2O)c1O [Compound 4, 2,6-bis(3-bromo-5-chloro-2-hydroxybenzyl)-4-fluorophenol]",effective against immature fluke,[2]; 5.0 mg/kg,49%
same,effective against immature fluke,[2]; 7.5 mg/kg,85%
same,effective against immature fluke,[2]; 10 mg/kg,98%
same,Post Mortem Results: No of adult fluke,"[1]; 1.0 mg/kg oral, killed day 14",0
same,Post Mortem Results: No of adult fluke,"[1]; 2.0 mg/kg s/c, killed day 14",0
same,Post Mortem Results: No of adult fluke,"[1]; 3.1 mg/kg oral, killed day 14",0
same,Post Mortem Results: No of adult fluke,"[1]; 6.3 mg/kg oral, killed day 14",0
same,Post Mortem Results: No of adult fluke,"[1]; 12.5 mg/kg oral, Day 29",0
same,Faecal Egg Count,"[1]; 2.0 mg/kg s/c, day 7",20 Eggs per g faeces
same,Faecal Egg Count,"[1]; 2.0 mg/kg s/c, day 14",0 Eggs per g faeces
same,Faecal Egg Count,"[1]; 3.1 mg/kg oral, day 2",0 Eggs per g faeces
same,Faecal Egg Count,"[1]; 3.1 mg/kg oral, day 7",10 Eggs per g faeces
same,Faecal Egg Count,"[1]; 3.1 mg/kg oral, day 14",0 Eggs per g faeces
same,Faecal Egg Count,"[1]; 6.3 mg/kg oral, day 2",70 Eggs per g faeces
same,Faecal Egg Count,"[1]; 6.3 mg/kg oral, day 7",0 Eggs per g faeces
same,Faecal Egg Count,"[1]; 12.5 mg/kg oral, day 2",2520 Eggs per g faeces
same,Faecal Egg Count,"[1]; 12.5 mg/kg oral, day 7",200 Eggs per g faeces
same,Faecal Egg Count,"[1]; 12.5 mg/kg oral, day 14",0 Eggs per g faeces
"O=[N+]([O-])c1cc(Cl)cc(Cc2cc(Cl)cc(Cc3cc(Cl)cc([N+](=O)[O-])c3O)c2O)c1O [Compound 9, 2,6-Bis(5-chloro-2-hydroxy-3-nitrobenzyl)-4-chlorophenol]",Post Mortem Results: No of adult fluke,"[1]; 12.5 mg/kg s/c, killed day 14",3
same,Faecal Egg Count,"[1]; 12.5 mg/kg s/c, day 7",0 Eggs per g faeces
same,Faecal Egg Count,"[1]; 12.5 mg/kg s/c, day 14",10 Eggs per g faeces
Oc1c(Br)cc(Br)cc1Cc1cc(Cl)cc(Cc2cc(Br)cc(Br)c2O)c1O [Compound 11],Post Mortem Results: No of adult fluke,"[1]; 12.5 mg/kg oral, killed day 14",12
same,Faecal Egg Count,"[1]; 12.5 mg/kg oral, day 7",130 Eggs per g faeces
same,Faecal Egg Count,"[1]; 12.5 mg/kg oral, day 14",40 Eggs per g faeces
Oc1c(Br)cc(Cl)cc1Cc1cc(Cl)cc(Cc2cc(Cl)cc(Br)c2O)c1O [Compound 12],Post Mortem Results: No of adult fluke,"[1]; 4.0 mg/kg oral, killed day 14",0
same,Post Mortem Results: No of adult fluke,"[1]; 12.5 mg/kg oral, killed day 14",0
same,Faecal Egg Count,"[1]; 4.0 mg/kg oral, day 7",0 Eggs per g faeces
same,Faecal Egg Count,"[1]; 4.0 mg/kg oral, day 14",0 Eggs per g faeces
same,Faecal Egg Count,"[1]; 12.5 mg/kg oral, day 7",40 Eggs per g faeces
same,Faecal Egg Count,"[1]; 12.5 mg/kg oral, day 14",0 Eggs per g faeces
Oc1c(Br)cc(Br)cc1Cc1cc(F)cc(Cc2cc(Br)cc(Br)c2O)c1O [Compound 14],Post Mortem Results: No of adult fluke,"[1]; 4.0 mg/kg oral, killed day 14",1
same,Post Mortem Results: No of adult fluke,"[1]; 12.5 mg/kg oral, killed day 14",0
same,Faecal Egg Count,"[1]; 4.0 mg/kg oral, day 7",0 Eggs per g faeces
same,Faecal Egg Count,"[1]; 4.0 mg/kg oral, day 14",0 Eggs per g faeces
same,Faecal Egg Count,"[1]; 12.5 mg/kg oral, day 7",60 Eggs per g faeces
same,Faecal Egg Count,"[1]; 12.5 mg/kg oral, day 14",0 Eggs per g faeces
Oc1c(Cl)cc(F)cc1Cc1cc(Cl)cc(Cc2cc(F)cc(Cl)c2O)c1O [Compound 17],Post Mortem Results: No of adult fluke,"[1]; 12.5 mg/kg oral, killed day 14",2
same,Faecal Egg Count,"[1]; 12.5 mg/kg oral, day 7",150 Eggs per g faeces
same,Faecal Egg Count,"[1]; 12.5 mg/kg oral, day 14",20 Eggs per g faeces
same,Faecal Egg Count,"[1]; 12.5 mg/kg oral, day 18",20 Eggs per g faeces
"Oc1c(Cl)cc(Cl)cc1Cc1cc(F)cc(Cc2cc(Cl)cc(Cl)c2O)c1O [Compound 18, 2,6-bis(3,5-dichloro-2-hydroxybenzyl)-4-fluorophenol]",Post Mortem Results: No of adult fluke,"[1]; 12.5 mg/kg oral, killed day 14",0
same,Faecal Egg Count,"[1]; 12.5 mg/kg oral, day 7",0 Eggs per g faeces
same,Faecal Egg Count,"[1]; 12.5 mg/kg oral, day 14",0 Eggs per g faeces
Oc1c(Br)cc(F)cc1Cc1cc(F)cc(Cc2cc(F)cc(Br)c2O)c1O [Compound 22],Post Mortem Results: No of adult fluke,"[1]; 6.3 mg/kg oral, killed day 14",0
same,Post Mortem Results: No of adult fluke,"[1]; 12.5 mg/kg oral, killed day 14",0
same,Faecal Egg Count,"[1]; 6.3 mg/kg oral, day 7",0 Eggs per g faeces
same,Faecal Egg Count,"[1]; 6.3 mg/kg oral, day 14",0 Eggs per g faeces
same,Faecal Egg Count,"[1]; 12.5 mg/kg oral, day 7",1340 Eggs per g faeces
same,Faecal Egg Count,"[1]; 12.5 mg/kg oral, day 14",0 Eggs per g faeces
